Laboratory results as given in patent US6638530B1, “Benzamide formulation with histone deacetylase inhibitor activity” (Schering Aktiengesellschaft, priority 1999, dated 2003).
In brackets after ≈: the same amount, converted by molar mass. Like-named read-outs stand apart in the source and are kept apart here.

Assay: Solubility of compound 1 in solvent (100 mg blended with 10 ml solvent, supernatant measured by HPLC)
Format: physicochemical
Settings: for solubility thermodynamic: thermodynamic from solid, read-out: Compound 1 concentration; for solubility thermodynamic / Compound 1 concentration: room temperature
Method: After thoroughly blending 100 mg of compound 1 with 10 ml each of 0.05 N hydrochloric acid solution, methanol, ethanol, propylene carbonate, polysorbate 80, polyethylene glycol 400, polyethylene glycol 300, glycerin, dimethylacetamide or propylene glycol at room temperature, the supernatant obtained by centrifugal separation of each mixture was separated off and used as a pharmaceutical solution. Comparative control samples were also prepared by thoroughly dissolving 100 mg of compound 1 with 10 ml each of purified water, sodium acetate buffer solution at pH 4.0 or sodium phosphate buffer solution at pH 6.8 at room temperature, and separating off the supernatant obtained by centrifugal separation. […] All of the samples of the present invention contained dissolved compound 1 at a concentration of 5 mg/ml or greater, which is a sufficient concentration for an injection. On the other hand, all of the comparative control samples contained dissolved compound 1 only at a concentration of 0.2 mg/ml or less, and therefore the concentration necessary for an injection could not be guaranteed.

Nc1ccccc1NC(=O)c1ccc(CNC(=O)OCc2cccnc2)cc1 [Compound 1]
concentration of dissolved compound 1 (all of the comparative control samples): ≤ 200 µg/mL | concentration of dissolved compound 1 (all of the samples of the present invention): ≥ 5000 µg/mL | solubility thermodynamic (purified water, solvent: water, comparative control sample): 0.04 mg/mL (≈ 106 µM) | solubility thermodynamic (simulated gastric fluid, solvent: 0.05 N hydrochloric acid solution): 14 mg/mL (≈ 37200 µM) | solubility thermodynamic (sodium acetate buffer solution, aqueous buffer, solvent: sodium acetate buffer, pH 4.0, comparative control sample): 0.2 mg/mL (≈ 531 µM) | solubility thermodynamic (sodium phosphate buffer solution, aqueous buffer, solvent: phosphate buffer, pH 6.8, comparative control sample): 0.04 mg/mL (≈ 106 µM) | Compound 1 concentration (solvent: dimethylacetamide): >100 mg/mL | Compound 1 concentration (solvent: ethanol): 5.4 mg/mL | Compound 1 concentration (solvent: glycerin): 10.0 mg/mL | Compound 1 concentration (solvent: methanol): 9.9 mg/mL | Compound 1 concentration (solvent: polyethylene glycol 300): 69.1 mg/mL | Compound 1 concentration (solvent: polyethylene glycol 400): 77.7 mg/mL | Compound 1 concentration (solvent: polysorbate 80): 29.9 mg/mL | Compound 1 concentration (solvent: propylene carbonate): 17.5 mg/mL | Compound 1 concentration (solvent: propyleneglycol): 54.6 mg/mL
